The values below come from ChEMBL document CHEMBL1143512, “Antitubercular agents. Part 2: new thiolactomycin analogues active against Mycobacterium tuberculosis” (2005).

In brackets after ≈: the same amount, converted by molar mass. Bounds are passed on as bounds.

One test concerns Mycobacterium tuberculosis. The test can be described thus: Minimum inhibitory concentration against Mycobacterium tuberculosis resistant clinical isolates; Range: 8->16 ug/ml. Type of test: functional.
Take `NNC(=O)c1ccncc1` [ISONIAZID]: the MIC was over 16 µg/mL.

In a further test the test system is Mycobacterium tuberculosis. Briefly: Minimum inhibitory concentration against Mycobacterium tuberculosis resistant clinical isolates; Range: 1-4 ug/ml. Type of test: functional.
As to `COC(=O)CSCCCCCCCCOC1=C(C)C(=O)SC1C` (stereo not given), the minimum inhibitory concentration (MIC) stood at 4 µg/mL (≈ 11.1 µM).

Another test concerns Mycobacterium tuberculosis. The test can be described thus: Minimum inhibitory concentration against Mycobacterium tuberculosis resistant clinical isolates; Range:4-16 ug/ml. Type of test: functional.
The compound `CC1=C(OCCCCCCCCCCBr)C(C)SC1=O` (stereo not given) yielded an MIC of 16 µg/mL (≈ 44 µM).

The next test has as its system Mycobacterium tuberculosis. Briefly: Minimum inhibitory concentration against Mycobacterium tuberculosis resistant clinical isolates. Type of test: functional.
As to `COC(=O)CSCCCCCCOC1=C(C)C(=O)SC1C` (stereo not given), the MIC is over 16 µg/mL.
Still for that read-out and setting: in the case of `COC(=O)CSCCCCOC1=C(C)C(=O)SC1C` (stereo not given) it was over 16 µg/mL.
Same read-out and setting: in the case of `CC1=C(OCCCCCCCCBr)C(C)SC1=O` (stereo not given) it was over 16 µg/mL.
Still for that read-out and setting: in the case of `CC1=C(OCCCCCCCCCCN2CCN(C)CC2)C(C)SC1=O` (stereo not given) it was over 16 µg/mL; in that of `CC1=C(OCCCCCN2CCOCC2)C(C)SC1=O` (stereo not given), over 16 µg/mL.
Take `CC1=C(OCCCCCCCCCCN2CCOCC2)C(C)SC1=O` (stereo not given): the MIC is over 16 µg/mL.
Same read-out and setting: as for `CC1=C(OCCCCCCCCN2CCOCC2)C(C)SC1=O` (stereo not given), the figure is over 16 µg/mL; as for `COC(=O)CSCCCOC1=C(C)C(=O)SC1C` (stereo not given), over 16 µg/mL.
Same read-out and setting: in the case of `CC1=C(OCCCCCN2CCN(C)CC2)C(C)SC1=O` (stereo not given) it was over 16 µg/mL; in that of `COC(=O)CSCCCCCOC1=C(C)C(=O)SC1C` (stereo not given), over 16 µg/mL.
Still for that read-out and setting: in the case of `CC1=C(OCCCBr)C(C)SC1=O` (stereo not given) it was over 16 µg/mL; in that of `CC1=C(OCCCN2CCOCC2)C(C)SC1=O` (stereo not given), over 16 µg/mL; in that of `COC(=O)CSCCCCCCCCCCOC1=C(C)C(=O)SC1C` (stereo not given), over 16 µg/mL.
Turning to `CC1=C(OCCCCN2CCOCC2)C(C)SC1=O` (stereo not given), the MIC was over 16 µg/mL.
The same measure, in the same setting: as for `CC1=C(OCCCCCCN2CCOCC2)C(C)SC1=O` (stereo not given), the figure is over 16 µg/mL.
On the same count and under the same terms, as for `CC1=C(OCCCCCCCCN2CCN(C)CC2)C(C)SC1=O` (stereo not given), the figure is over 16 µg/mL; as for `CC1=C(OCCCCCCN2CCN(C)CC2)C(C)SC1=O` (stereo not given), over 16 µg/mL.
Still for that read-out and setting: in the case of `CC1=C(OCCCCN2CCN(C)CC2)C(C)SC1=O` (stereo not given) it was over 16 µg/mL.
`CC1=C(OCCCN2CCN(C)CC2)C(C)SC1=O` (stereo not given) had an MIC of over 16 µg/mL.
On the same count and under the same terms, as for `CC1=C(OCCCCBr)C(C)SC1=O` (stereo not given), the figure is over 16 µg/mL; as for `CC1=C(OCCCCCCBr)C(C)SC1=O` (stereo not given), over 16 µg/mL.
As to `CC1=C(OCCCCCBr)C(C)SC1=O` (stereo not given), the minimum inhibitory concentration (MIC) was over 16 µg/mL.

One may read the MIC as the lowest concentration found to suppress growth.
